Measurements: the NIST ThermoML archive (doi:10.1021/acs.jced.9b00536)

Experiment: refractive index (Na D-line) (dimensionless); wn = mass fraction of the nth substance listed
Conditions: 100 kPa, Liquid, Standard Abbe refractometry

[Na+].[OH-] [sodium hydroxide] + O
refractive index
Conditions	283.15 K	288.15 K	293.15 K	298.15 K	303.15 K	308.15 K
w1 = 0.2	1.3856	1.3847	1.3838	1.3829	1.382	1.3811
w1 = 0.21	1.3875	1.3866	1.3858	1.3849	1.384	1.3832
w1 = 0.22	1.3904	1.3895	1.3886	1.3878	1.3869	1.386
w1 = 0.23	1.3922	1.3912	1.3903	1.3893	1.3882	1.3874
w1 = 0.24	1.3941	1.3932	1.3923	1.3914	1.3905	1.3896
w1 = 0.25	1.3969	1.3961	1.3952	1.3943	1.3934	1.3925
w1 = 0.26	1.3991	1.3982	1.3974	1.3965	1.3956	1.3947
w1 = 0.27	1.4009	1.4	1.3991	1.3982	1.3973	1.3964
w1 = 0.28	1.4028	1.4019	1.4011	1.4002	1.3993	1.3983
w1 = 0.29	1.4053	1.4044	1.4035	1.4026	1.4017	1.4008
w1 = 0.3	1.4066	1.4056	1.4048	1.4038	1.4029	1.402
w1 = 0.31	1.4087	1.4077	1.4068	1.4059	1.405	1.4041
w1 = 0.32	1.4099	1.4091	1.4081	1.4073	1.4063	1.4055
w1 = 0.33	1.4115	1.4107	1.4097	1.4088	1.4079	1.407
w1 = 0.34	1.4141	1.4132	1.4123	1.4114	1.4105	1.4096
w1 = 0.35	1.416	1.4151	1.4142	1.4133	1.4123	–
w1 = 0.36	1.4175	1.4167	1.4158	1.4148	1.4139	–
w1 = 0.37	1.419	1.4181	1.4172	1.4163	1.4154	–
w1 = 0.38	1.4209	1.42	1.4191	1.4182	1.4173	–
w1 = 0.39	1.4226	1.4217	1.4208	1.4199	1.4189	–
w1 = 0.4	1.4241	1.4232	1.4223	1.4214	1.4205	–
w1 = 0.41	1.4252	1.4243	1.4234	1.4225	1.4215	–
w1 = 0.42	1.4269	1.426	1.425	1.4241	1.4231	–
w1 = 0.43	1.4281	1.4272	1.4263	1.4254	1.4245	–
w1 = 0.44	1.4293	1.4284	1.4274	1.4265	1.4255	–
w1 = 0.45	1.4303	1.4295	1.4286	1.4276	1.4267	–
w1 = 0.46	1.4321	1.4312	1.4303	1.4293	1.4284	–
w1 = 0.47	1.4332	1.4323	1.4314	1.4304	1.4294	–
w1 = 0.48	1.4347	1.4338	1.4329	1.432	1.4311	–
w1 = 0.49	1.4356	1.4347	1.4338	1.4328	1.4318	–
w1 = 0.5	1.4365	1.4355	1.4346	1.4337	1.4328	–
